Patent publication US20250325533A1, “TRYPTAMINE COMPOSITIONS FOR ENHANCING NEURITE OUTGROWTH” (TURTLE BEAR HOLDINGS, LLC, priority 2016, published 2025)
“Also recorded” adds a separate entry of the source.

Key:
[1] = system: inflammation in the lungs; conditions: in vivo; cited from earlier work
[2] = system: Rat Induced Pluripotent Stem Cell (iPSC) neurons / cortical neurons from rat embryo; assay: Neurite outgrowth and length in cultured neurons, beta III tubulin immunostaining, High-Content Screening (Neurofit); assay type: cell-based; conditions: day 10
Description: Experiments were conducted to evaluate the neurotrophic effects of several purified tryptamines, H. erinaceum extracts, and the tryptamines combined with selected extracts of H. erinaceum. The tryptamines, baeocystin, norbaeocystin, and norpsilocin, were evaluated at final concentrations of 0.3 μg/mL, 1 μg/mL, 3 μg/mL, and 10 μg/mL. The experiments analyzed the H. erinaceum growth medium (rice or rice and oat hull fiber), the days of cultivation, the extract solvent (water, ethanol, or ethyl acetate), and the final concentration of the extract (31.3 μg/mL, 62.5 μg/mL, 125 μg/mL or 250 μg/mL). Finally, combinations of the three tryptamines and representative H. erinaceum extracts were combined and evaluated.
Experiments were conducted by Neurofit Contract Research Organization in Illkirch-Graffenstaden, France.
The following protocol was performed for each independent culture. Six culture experiments were performed for each condition.
Results are expressed as mean (±Standard Deviation).

[3] = system: PC12 cells (conditioned media from 1321N1 human astrocytoma cells); assay: Neurite outgrowth of PC12 cells treated with conditioned media from 1321N1 cells; assay type: cell-based, rat; conditions: conditioned media from treated 1321N1 cells; n=3
Description: 1321N1 human brain astrocytoma cells are known to excrete neurologically beneficial compounds when stimulated with neurotrophic compounds and fungal extracts including lion's mane (Mori et al., Biological and Pharmaceutical Bulletin, 9: 1727-1732 (2008)). While some fungi have well established mechanisms by which they benefit neurological health, little is known about the role of psilocybin analogs specifically. Generally following the protocol of Mori et al., 2008, 1321N1 human astrocytoma cells were treated with psilocybin analogs, and conditioned media was collected and applied to differentiated rat pheochromocytoma PC12 cells to determine the resulting impact on neurite outgrowth.

[4] = system: hallucinogenic effects in humans; conditions: human, cited from earlier work
[5] = system: nerve growth factor (NGF) protein; assay: ELISA of NGF protein in 1321N1 cells; assay type: cell-based; conditions: human 1321N1 cells; vs vehicle control; n=3; p<0.05
Description: Accordingly, preliminary research has started to reveal the mechanisms by which psilocybin analogs may confer neurotrophic benefits that facilitate neurite outgrowth.
(§1) See Ly et al., “Psychedelics Promote Structural and Functional Neural Plasticity,” Cell Rep.

[6] = system: anti-inflammatory cytokine IL-10; assay: ELISA of IL-10 in 1321N1 cells; assay type: cell-based; conditions: human 1321N1 brain cells
Description: as §1

## COc1cc(C[C@@H](C)N)c(OC)cc1I [(R)-2,5-dimethoxy-4-iodoamphetamine]
[1]
  inflammation in the lungs: prevent and reverse inflammation

## CNCCc1c[nH]c2cccc(OP(=O)(O)O)c12 [baeocystin, 4-phosphoryloxy-N-methyltryptamine]
[2]; tryptamine 0.3 μg/mL
  Neurite length per neuron, % of control, Avg.: 119.24%
  Neurites per neuron, % of control, Avg.: 94.46%
[2]; tryptamine 1 μg/mL
  Neurite length per neuron, % of control, Avg.: 112.34%
  Neurites per neuron, % of control, Avg.: 93.66%
[2]; tryptamine 3 μg/mL
  Neurite length per neuron, % of control, Avg.: 118.42%
  Neurites per neuron, % of control, Avg.: 97.18%
[2]; tryptamine 10 μg/mL
  Neurite length per neuron, % of control, Avg.: 109.61%
  Neurites per neuron, % of control, Avg.: 96.87%
[3]
  neurite outgrowth induced by conditioned media: induce neurite outgrowth
[4]; 4 mg consumed, anecdotal (Gartz 1991)
  hallucinogenic effect: gentle hallucinogenic experience
[4]; oral consumption of 10 mg and 20 mg
  hallucinogenic effects: did not produce any hallucinogenic effects

## NCCc1c[nH]c2cccc(OP(=O)(O)O)c12 [norbaeocystin, 4-phosphoryloxy-tryptamine]
[3]
  neurite outgrowth induced by conditioned media: induce neurite outgrowth
[5]
  expression of NGF protein: increased expression of NGF protein; also recorded: induces the expression; also recorded: induction of NGF protein

## CNCCc1c[nH]c2cccc(O)c12 [norpsilocin, 4-hydroxy-N-methyl-tryptamine]
[2]; at the concentrations tested
  neurite outgrowth compared with vehicle control and other treatments (in words): did not perform better than vehicle control
[2]; tryptamine 0.3 μg/mL
  Neurite length per neuron, % of control, Avg.: 107.70%
  Neurites per neuron, % of control, Avg.: 83.77%
[2]; tryptamine 1 μg/mL
  Neurite length per neuron, % of control, Avg.: 101.13%
  Neurites per neuron, % of control, Avg.: 87.18%
[2]; tryptamine 3 μg/mL
  Neurite length per neuron, % of control, Avg.: 73.80%
  Neurites per neuron, % of control, Avg.: 79.36%
[2]; tryptamine 10 μg/mL
  Neurite length per neuron, % of control, Avg.: 7.65%
  Neurites per neuron, % of control, Avg.: 27.71%
[3]
  neurite outgrowth induced by conditioned media: induce neurite outgrowth
[6]
  expression of IL-10: induces the expression
